# PMC10363480 (Plant Communications, 2023)
# Test system: mitochondria or chloroplast of Chlamydomonas reinhardtii
# Assay: Subcellular localization of Venus reporter by epifluorescence microscopy (manual targeting assignment)
# Format: cell-based
# Conditions: manual targeting assignment of the Venus reporter construct in Chlamydomonas: Neither / Mitochondria / Chloroplast / Dual, (partial) = partial targeting
# From the text: In a bid to keep peptidase recognition sites intact, C-terminal elements were designed to start 10 residues upstream of the cleavage site, even though this slightly truncates TP helices. Peptides carrying the 15-amino-acid cTP N-terminus (cTP-N) will be denoted ^cP. Similarly, peptides with C-terminal elements from RCA1-cTP (cTP-C) or CAG2-mTP (mTP-C) will be denoted P^c or P^m, respectively. Peptide variants are used to drive the subcellular localization of a Venus fluorescent reporter protein, which was assessed using fluorescence microscopy; in Figure 2, an executive overview of observed Venus localization is presented for all constructs. […] Here, we use automated image segmentation to validate our subcellular localization assessment (Supplemental Figure 2, Supplemental text). […] The reader will be asked to return to Figure 2 throughout, with Figures 3 and 4 providing selected micrographs as examples highlighting particular points of interest.
# Chlamydomonas TP sequences were amplified from genomic DNA extracted from strain T222+ (CC-5101). Templates for codon-optimized HA-RAMP, RP, and R→K modified TP sequences were obtained by gene synthesis (Eurofins Genomics). Correct assembly was verified by sequencing (Eurofins Genomics). Linear transformation cassettes were generated through restriction digestion with EcoRV (New England Biolabs).
# Constructs were transformed into wild-type strain T222+ (CC-5101) using a protocol described previously ([Onishi and Pringle, 2016]), except using 4 μl of DNA at 2 μg/μl.
# Strains with suspected mitochondrial targeting were treated with 0.1 μM MitoTracker Red CMXRos (Thermo Fisher Scientific) in growth medium for 30 min in the dark and washed with TAP prior to taking images.
# Legend for Fig. S3 – S20. Three independent transformant lines (Strains 1-3) are shown for each combination of modifications (A-L), represented by a cartoon and a shorthand description (cf. Fig.
# 2). Where a construct was interpreted as generating reporter localization in mitochondria or […]
# Epifluorescence microscopy images of typical cells for each strain are shown. MitoTracker fluorescence, false-coloured in cyan, indicates the position of mitochondria (although parts of the cell exterior are sometimes also stained). False-coloured yellow fluorescence from the Venus channel reports on the subcellular localization of the fluorescent reporter. Chlorophyll autofluorescence, shown in magenta, indicates the location of the chloroplast. Scale bars are 5µm. Brightness (Br.) was adjusted for clarity: fluorescence intensity values were restricted to the range shown for each channel by matching coloured rectangles. Intensity scales to 0 at the bottom of the panel, and to 65535 at the top.
# On the right-hand side, quantitative information associated with each construct is shown. Data was normalized such that averages range from 0 to 1 across all constructs (cf. Fig S2). Individual cell measurements may exceed this range; for clarity, the range shown here is limited to -0.5 to 1.5, with outliers that have more extreme values shown as lying beyond a dashed line. Strain 1 is plotted as circles, strain 2 as squares, and strain 3 as diamonds. Venus: Fluorescence plate reader data of transformants screened for this construct (Venus fluorescence, accounting for cell density using linear regression of OD750 and chlorophyll fluorescence trained on ‘no venus’ control transformants). Transformants that were not selected after screening are shown as small grey circles. A colour code ranging from white (low Venus fluorescence) to black (high Venus fluorescence) is used for strains 1-3 and the average thereof. Automated image quantification data: pyr/chl: Venus channel signal in the pyrenoid relative to in the chlorophyll region; mt/cell: Venus channel signal in mitochondria relative to the whole cell. Each point corresponds to a single cell.
# The colour code code is the same as that below distributions in Fig. S2, i.e. blue highlights the […]
row,Sequence,Localisation
1,MGLLLDTLRGAARDIAGIALERLRCRITGCRP [R2G.R],Mitochondria (partial)
2,MGLLLDTLRGAARDIAGIALERLRCRITGCRPLTQTAESFRGVSSQFFDAPNGPSVKQVLIEDEW [R2G.R.m],Mitochondria
3,MGLLLDTLRGAARDIAGIALERLRCRITGCRPSVRRAQLQVVASSRKQMGRWRSIDAGVDASDDQ [R2G.R.c],Neither
4,MGRIPVRAIRRAGAAIGRGLRAINIASTAHDVYSFFRPRHRRR [SIM.R],Neither
5,MGRIPVRAIRRAGAAIGRGLRAINIASTAHDVYSFFRPRHRRRLTQTAESFRGVSSQFFDAPNGPSVKQVLIEDEW [SIM.R.m],Neither
6,MGRIPVRAIRRAGAAIGRGLRAINIASTAHDVYSFFRPRHRRRSVRRAQLQVVASSRKQMGRWRSIDAGVDASDDQ [SIM.R.c],Neither
7,MGWIRDFGRRIERVGQHTRDATIQTIAVAQQAANVAATLRG [S1D.R],Neither
8,MGWIRDFGRRIERVGQHTRDATIQTIAVAQQAANVAATLRGLTQTAESFRGVSSQFFDAPNGPSVKQVLIEDEW [S1D.R.m],Neither
9,MGWIRDFGRRIERVGQHTRDATIQTIAVAQQAANVAATLRGSVRRAQLQVVASSRKQMGRWRSIDAGVDASDDQ [S1D.R.c],Chloroplast (partial)
10,MLKKVGQSLVPFAKAG [MH.K],Neither
11,MLKKVGQSLVPFAKAGLTQTAESFKGVSSQFFDAPNGPSVKQVLIEDEW [MH.K.m],Neither
12,MLKKVGQSLVPFAKAGSVRRAQLQVVASSRKQMGRWRSIDAGVDASDDQ [MH.K.c],Dual
13,MLKRVGQSLVPFARAG [MH.R],Mitochondria (partial)
14,MLKRVGQSLVPFARAGLTQTAESFRGVSSQFFDAPNGPSVKQVLIEDEW [MH.R.m],Mitochondria (partial)
15,MLKRVGQSLVPFARAGSVRRAQLQVVASSRKQMGRWRSIDAGVDASDDQ [MH.R.c],Dual
16,MLTQTAESFRGVSSQFFDAPNGPSVKQVLIEDEW [-.m],Neither
17,MQVTMKSSAVSGQKVGGAKVATK [c.CH.K],Neither
18,MQVTMKSSAVSGQKVGGAKVATKLTQTAESFRGVSSQFFDAPNGPSVKQVLIEDEW [c.CH.K.m],Neither
19,MQVTMKSSAVSGQKVGGAKVATKSVKKAQLQVVASSKKQMGKWKSIDAGVDASDDQ [c.CH.K.c],Chloroplast (partial)
20,MQVTMKSSAVSGQRVALWRTMLRRLGTMALHAGRAAFGAAADTISQ [c.DDM.R],Mitochondria (partial)
21,MQVTMKSSAVSGQRVALWRTMLRRLGTMALHAGRAAFGAAADTISQLTQTAESFRGVSSQFFDAPNGPSVKQVLIEDEW [c.DDM.R.m],Neither
22,MQVTMKSSAVSGQRVALWRTMLRRLGTMALHAGRAAFGAAADTISQSVRRAQLQVVASSRKQMGRWRSIDAGVDASDDQ [c.DDM.R.c],Chloroplast
23,MQVTMKSSAVSGQRVDEVNNDNCRIRFRGDISSESDRMNINY [c.RP2.R],Neither
24,MQVTMKSSAVSGQRVDEVNNDNCRIRFRGDISSESDRMNINYLTQTAESFRGVSSQFFDAPNGPSVKQVLIEDEW [c.RP2.R.m],Neither
25,MQVTMKSSAVSGQRVDEVNNDNCRIRFRGDISSESDRMNINYSVRRAQLQVVASSRKQMGRWRSIDAGVDASDDQ [c.RP2.R.c],Neither

# Same assay, conditions: peptide-Venus reporter construct expressed in Chlamydomonas reinhardtii; manual targeting assignment (Neither / Mitochondria / Chloroplast / Dual; partial = partial targeting)
row,Sequence,Localisation
1,MKYYGNGVHCTKSGCSVNWGEAFSAGVHRLANGGNGFW [LCA.K],Neither
2,MKYYGNGVHCTKSGCSVNWGEAFSAGVHRLANGGNGFWLTQTAESFRGVSSQFFDAPNGPSVKQVLIEDEW [LCA.K.m],Neither
3,MKYYGNGVHCTKSGCSVNWGEAFSAGVHRLANGGNGFWSVRRAQLQVVASSRKQMGRWRSIDAGVDASDDQ [LCA.K.c],Chloroplast (partial)
4,MKYYGNGVHCTRSGCSVNWGEAFSAGVHRLANGGNGFW [LCA.R],Neither
5,MKYYGNGVHCTRSGCSVNWGEAFSAGVHRLANGGNGFWLTQTAESFRGVSSQFFDAPNGPSVKQVLIEDEW [LCA.R.m],Neither
6,MKYYGNGVHCTRSGCSVNWGEAFSAGVHRLANGGNGFWSVRRAQLQVVASSRKQMGRWRSIDAGVDASDDQ [LCA.R.c],Chloroplast (partial)
7,MQVTMKSSAVSGQRVALWMTLLKKVLKAAAKAALNAVLVGANA [c.DS4.K],Neither
8,MQVTMKSSAVSGQRVALWMTLLKKVLKAAAKAALNAVLVGANALTQTAESFRGVSSQFFDAPNGPSVKQVLIEDEW [c.DS4.K.m],Neither
9,MQVTMKSSAVSGQRVALWMTLLRRVLRAAARAALNAVLVGANA [c.DS4.R],Neither

# Same assay, conditions: targeting of the Venus reporter fused to the peptide, expressed in Chlamydomonas reinhardtii; manual assignment from epifluorescence microscopy; full or partial
row,Sequence,Localisation
1,MGLLLDTLKGAAKDIAGIALEKLKCKITGCKPLTQTAESFRGVSSQFFDAPNGPSVKQVLIEDEW [R2G.K.m],Mitochondria (partial)
2,MGLLLDTLKGAAKDIAGIALEKLKCKITGCKPSVRRAQLQVVASSRKQMGRWRSIDAGVDASDDQ [R2G.K.c],Neither
3,MGWIRDFGKRIERVGQHTRDATIQTIAVAQQAANVAATLKG [S1D.K],Neither
4,MGWIRDFGKRIERVGQHTRDATIQTIAVAQQAANVAATLKGLTQTAESFRGVSSQFFDAPNGPSVKQVLIEDEW [S1D.K.m],Neither
5,MGWIRDFGKRIERVGQHTRDATIQTIAVAQQAANVAATLKGSVRRAQLQVVASSRKQMGRWRSIDAGVDASDDQ [S1D.K.c],Chloroplast
6,MKYYGNGVSCNKKGCSVDWGKAIGIIGNNAAANLTTGGKAGWKG [EHF.K],Neither
7,MKYYGNGVSCNKKGCSVDWGKAIGIIGNNAAANLTTGGKAGWKGLTQTAESFRGVSSQFFDAPNGPSVKQVLIEDEW [EHF.K.m],Neither
8,MKYYGNGVSCNKKGCSVDWGKAIGIIGNNAAANLTTGGKAGWKGSVRRAQLQVVASSRKQMGRWRSIDAGVDASDDQ [EHF.K.c],Chloroplast (partial)
9,MNIVVYWNFTLWHMDINARNAGCDGEGS [RP1.K],Neither
10,MNIVVYWNFTLWHMDINARNAGCDGEGSLTQTAESFRGVSSQFFDAPNGPSVKQVLIEDEW [RP1.K.m],Neither
11,MNIVVYWNFTLWHMDINARNAGCDGEGSSVRRAQLQVVASSRKQMGRWRSIDAGVDASDDQ [RP1.K.c],Neither
12,MQVTMKSSAVSGQRV [c.-],Neither
13,MQVTMKSSAVSGQRVAAAAAAAASVRRAQLQVVASSRKQMGRWRSIDAGVDASDDQ [c.AA.c],Chloroplast (partial)
14,MQVTMKSSAVSGQRVALWMTLLKKVLKAAAKAALNAVLVGANASVRRAQLQVVASSRKQMGRWRSIDAGVDASDDQ [c.DS4.K.c],Neither
15,MQVTMKSSAVSGQRVALWMTLLRRVLRAAARAALNAVLVGANALTQTAESFRGVSSQFFDAPNGPSVKQVLIEDEW [c.DS4.R.m],Neither
16,MQVTMKSSAVSGQRVALWMTLLRRVLRAAARAALNAVLVGANASVRRAQLQVVASSRKQMGRWRSIDAGVDASDDQ [c.DS4.R.c],Neither
17,MQVTMKSSAVSGQRVDEVNNDNCRIKFKGDISSESDKMNINY [c.RP2.K],Neither
18,MQVTMKSSAVSGQRVDEVNNDNCRIKFKGDISSESDKMNINYLTQTAESFRGVSSQFFDAPNGPSVKQVLIEDEW [c.RP2.K.m],Neither
19,MQVTMKSSAVSGQRVDEVNNDNCRIKFKGDISSESDKMNINYSVRRAQLQVVASSRKQMGRWRSIDAGVDASDDQ [c.RP2.K.c],Neither
20,MQVTMKSSAVSGQRVFLPLLAGLAANFLPKIFCKITRKC [c.B1E.K],Mitochondria
